Measured values reported in patent US10004253B1, “Method for increasing the health condition of crustaceans in aquaculture, survival rate and pigmentation” (priority 2017, dated 2018).

Tests used:
P. monodon shrimp = experiment: Total pigment and Astaxanthin enantiomers deposited, commercial ponds, Example 7; assay type: in vivo; details: feed with 60 ppm, sampled at three grams weight, lyophilized
Experimental: The concentration of total pigment in crustacean specimens extract was carried out by UV/VIS spectrophotometric methods measurement absorbance at 470 nm (A 1%=2100 in Hexane).
The Astaxanthin enantiometers deposited by the crustaceans specimens, or from its different organs, were quantified by HPLC after derivatization into the corresponding dicamphanates (Vecchi and Muller 1979).
7. —Comparison of the different Astaxanthin enantiomers deposited by P. monodon that were given the following three different diets: commercial feed as control; commercial feed containing 120 ppm of Lutein or Zeaxanthin Long Chain Diesters Concentrate; and commercial feed that contained 60 ppm of synthetic Astaxanthin (Carophyll Pink). […]
At three grams weight, the ponds were sampled, the specimens were lyophillized and the dehydrated samples were ground and analyzed.
The concentration of total pigment in the crustacean specimens extract was carried out by UV/Vis spectrophotometric methods measurement absorbance at 470 nm (A 1%=2100 in hexane).
The analysis of Astaxanthin R/S enantiomers deposited by the crustacean specimens, were quantified by HPLC after derivatization into the corresponding dicamphanates (Vecchi and Muller 1979), in order to differentiate the Astaxanthin enantiomers.

white shrimp L. vannamei = experiment: Different sources and doses of carotenoids in balanced feed, 60 day treatment, Example 6; assay type: in vivo; details: 75 ppm in feed
Description: 6. —Effects of different sources and doses of carotenoids in the balanced feed, growout, survival, and deposition of pigments in white shrimp L. vannamei. The following is a review of the results obtained regarding the dosing of Lutein/Zeaxanthin Long Chain Diesters in the feed, as compared to feed that contained synthetic Astaxanthin (Carophyll Pink). The average survival and final weight results of the experimental work with shrimp L. vannamei results, obtained after a 60 day treatment, are shown in Table V: […]

Structure (SMILES): CC1=C(/C=C/C(C)=C/C=C/C(C)=C/C=C/C=C(C)/C=C/C=C(C)/C=C/C2=C(C)C(=O)[C@@H](O)CC2(C)C)C(C)(C)C[C@H](O)C1=O [ROCHE Astaxanthin, Astaxanthin]
- Concentration of total pigment in specimens extract (UV/Vis 470 nm) (P. monodon shrimp): 152.5 ppm
- FINAL WEIGHT grs (white shrimp L. vannamei): 7.77 grs
- SURVIVAL % (white shrimp L. vannamei): 63.33%
- ASTAX. IN HEAD (hepathopanchreas) (white shrimp L. vannamei; HPLC): 29.2 micrograms of Astaxanthin per gram of tissue
- ASTAX. IN MUSCLE (white shrimp L. vannamei; HPLC): 11.4 micrograms of Astaxanthin per gram of tissue
- ASTAX. IN SHELL (carapace) (white shrimp L. vannamei; HPLC): 75.1 micrograms of Astaxanthin per gram of tissue
